Reference: publication PMC5601738, “Facile total synthesis of lysicamine and the anticancer activities of the Ru^II, Rh^III, Mn^II and Zn^II complexes of lysicamine” (Oncotarget, 2017)
“And” between values parts separate entries of the source, which are not always exact repeats. Equal values may be shown once.

Experiments:
[1] = test system: apoptosis genes in HepG2 cells; test: RT-qPCR array, human apoptosis PCR array (PAHS-012Z); format: cell-based; details: Hep-G2 cells, 14 μM, 24 h, vs control
NCI-H460 = test: MTT assay, NCI-H460 cells; format: cell-based, human; details: 48 h

COc1cc2ccnc3c2c(c1OC)-c1ccccc1C3=O.COc1cc2ccnc3c2c(c1OC)-c1ccccc1C3=O.COc1cc2ccnc3c2c(c1OC)-c1ccccc1C3=O.ClC(Cl)Cl.ClC(Cl)Cl.ClC(Cl)Cl.[Mn+2].[O-][Cl+3]([O-])([O-])[O-].[O-][Cl+3]([O-])([O-])[O-] [Complex 3, [Mn(LY)3](ClO4)2·3CHCl3]
Fold up/down-regulation, ABL1 [1]: 1.14
Fold up/down-regulation, ACTB [1]: -3.23
Fold up/down-regulation, AIFM1 [1]: 1.39
Fold up/down-regulation, AKT1 [1]: -1.50
Fold up/down-regulation, APAF1 [1]: -1.08
Fold up/down-regulation, B2M [1]: 1.32
Fold up/down-regulation, BAD [1]: -1.23
Fold up/down-regulation, BAG1 [1]: -3.76
Fold up/down-regulation, BAG3 [1]: 1.12
Fold up/down-regulation, BAK1 [1]: 2.10
Fold up/down-regulation, BAX [1]: 1.03
Fold up/down-regulation, BCL2 [1]: 1.08
Fold up/down-regulation, BCL2A1 [1]: 15.30
Fold up/down-regulation, BCL2L1 [1]: -1.97
Fold up/down-regulation, BCL2L2 [1]: 1.01
Fold up/down-regulation, BCL2L10 [1]: 1.21
Fold up/down-regulation, BCL2L11 [1]: 2.71
Fold up/down-regulation, BCL10 [1]: 1.24
Fold up/down-regulation, BFAR [1]: 1.36
Fold up/down-regulation, BID [1]: -1.24
Fold up/down-regulation, BIK [1]: 3.02
Fold up/down-regulation, BIRC2 [1]: 1.65
Fold up/down-regulation, BIRC3 [1]: -1.79
Fold up/down-regulation, BIRC5 [1]: -1.29
Fold up/down-regulation, BIRC6 [1]: 1.22
Fold up/down-regulation, BNIP2 [1]: 1.48
Fold up/down-regulation, BNIP3 [1]: 1.82
Fold up/down-regulation, BNIP3L [1]: 2.06
Fold up/down-regulation, BRAF [1]: 1.10
Fold up/down-regulation, CASP1 [1]: 1.61
Fold up/down-regulation, CASP2 [1]: -1.21
Fold up/down-regulation, CASP3 [1]: 1.46
Fold up/down-regulation, CASP4 [1]: 1.39
Fold up/down-regulation, CASP5 [1]: 1.47
Fold up/down-regulation, CASP6 [1]: 1.46
Fold up/down-regulation, CASP7 [1]: 1.23
Fold up/down-regulation, CASP8 [1]: 1.13
Fold up/down-regulation, CASP9 [1]: 3.47
Fold up/down-regulation, CASP10 [1]: -1.45
Fold up/down-regulation, CASP14 [1]: 8.51
Fold up/down-regulation, CD27 [1]: 4.42
Fold up/down-regulation, CD40 [1]: -1.09
Fold up/down-regulation, CD40LG [1]: 1.16
Fold up/down-regulation, CD70 [1]: -1.62
Fold up/down-regulation, CFLAR [1]: 1.19
Fold up/down-regulation, CIDEA [1]: 2.51
Fold up/down-regulation, CIDEB [1]: -1.33
Fold up/down-regulation, CRADD [1]: 1.01
Fold up/down-regulation, CYCS [1]: 2.27
Fold up/down-regulation, DAPK1 [1]: -1.22
Fold up/down-regulation, DFFA [1]: 1.10
Fold up/down-regulation, DIABLO [1]: 1.68
Fold up/down-regulation, FADD [1]: 1.24
Fold up/down-regulation, FAS [1]: -1.45
Fold up/down-regulation, FASLG [1]: 1.37
Fold up/down-regulation, GADD45A [1]: 3.98
Fold up/down-regulation, GAPDH [1]: -1.17
Fold up/down-regulation, HPRT1 [1]: -1.87
Fold up/down-regulation, HRK [1]: 49.72
Fold up/down-regulation, IGF1R [1]: -2.51
Fold up/down-regulation, IL10 [1]: 1.11
Fold up/down-regulation, LTA [1]: -1.40
Fold up/down-regulation, LTBR [1]: -1.24
Fold up/down-regulation, MCL1 [1]: 2.15
Fold up/down-regulation, NAIP [1]: -1.05
Fold up/down-regulation, NFKB1 [1]: -1.85
Fold up/down-regulation, NOD1 [1]: -1.30
Fold up/down-regulation, NOL3 [1]: -1.07
Fold up/down-regulation, PYCARD [1]: 2.80
Fold up/down-regulation, RIPK2 [1]: 1.45
Fold up/down-regulation, RPLP0 [1]: 1.17
Fold up/down-regulation, TNF [1]: 16.66
Fold up/down-regulation, TNFRSF1A [1]: -1.06
Fold up/down-regulation, TNFRSF1B [1]: -1.05
Fold up/down-regulation, TNFRSF9 [1]: 110.29
Fold up/down-regulation, TNFRSF10A [1]: -1.02
Fold up/down-regulation, TNFRSF10B [1]: 1.11
Fold up/down-regulation, TNFRSF11B [1]: 3.22
Fold up/down-regulation, TNFRSF21 [1]: 3.02
Fold up/down-regulation, TNFRSF25 [1]: 2.68
Fold up/down-regulation, TNFSF8 [1]: 3.25
Fold up/down-regulation, TNFSF10 [1]: 1.70
Fold up/down-regulation, TP53 [1]: -1.05
Fold up/down-regulation, TP53BP2 [1]: 1.53
Fold up/down-regulation, TP73 [1]: 1.38
Fold up/down-regulation, TRADD [1]: 1.11
Fold up/down-regulation, TRAF2 [1]: -1.21
Fold up/down-regulation, TRAF3 [1]: 1.01
Fold up/down-regulation, XIAP [1]: 1.26
FoldChange, ABL1 relative expression [1]: 1.14
FoldChange, ACTB relative expression [1]: 0.31
FoldChange, AIFM1 relative expression [1]: 1.39
FoldChange, AKT1 relative expression [1]: 0.67
FoldChange, APAF1 relative expression [1]: 0.92
FoldChange, B2M relative expression [1]: 1.32
FoldChange, BAD relative expression [1]: 0.81
FoldChange, BAG1 relative expression [1]: 0.27
FoldChange, BAG3 relative expression [1]: 1.12
FoldChange, BAK1 relative expression [1]: 2.10
FoldChange, BAX relative expression [1]: 1.03
FoldChange, BCL2A1 relative expression [1]: 15.30
FoldChange, BCL2L1 relative expression [1]: 0.51
FoldChange, BCL2L2 relative expression [1]: 1.01
FoldChange, BCL2L10 relative expression [1]: 1.21
FoldChange, BCL2L11 relative expression [1]: 2.71
FoldChange, BCL2 relative expression [1]: 1.08
FoldChange, BCL10 relative expression [1]: 1.24
FoldChange, BFAR relative expression [1]: 1.36
FoldChange, BID relative expression [1]: 0.80
FoldChange, BIK relative expression [1]: 3.02
FoldChange, BIRC2 relative expression [1]: 1.65
FoldChange, BIRC3 relative expression [1]: 0.56
FoldChange, BIRC5 relative expression [1]: 0.77
FoldChange, BIRC6 relative expression [1]: 1.22
FoldChange, BNIP2 relative expression [1]: 1.48
FoldChange, BNIP3L relative expression [1]: 2.06
FoldChange, BNIP3 relative expression [1]: 1.82
FoldChange, BRAF relative expression [1]: 1.10
FoldChange, CASP1 relative expression [1]: 1.61
FoldChange, CASP2 relative expression [1]: 0.83
FoldChange, CASP3 relative expression [1]: 1.46
FoldChange, CASP4 relative expression [1]: 1.39
FoldChange, CASP5 relative expression [1]: 1.47
FoldChange, CASP6 relative expression [1]: 1.46
FoldChange, CASP7 relative expression [1]: 1.23
FoldChange, CASP8 relative expression [1]: 1.13
FoldChange, CASP9 relative expression [1]: 3.47
FoldChange, CASP10 relative expression [1]: 0.69
FoldChange, CASP14 relative expression [1]: 8.51
FoldChange, CD27 relative expression [1]: 4.42
FoldChange, CD40LG relative expression [1]: 1.16
FoldChange, CD40 relative expression [1]: 0.92
FoldChange, CD70 relative expression [1]: 0.62
FoldChange, CFLAR relative expression [1]: 1.19
FoldChange, CIDEA relative expression [1]: 2.51
FoldChange, CIDEB relative expression [1]: 0.75
FoldChange, CRADD relative expression [1]: 1.01
FoldChange, CYCS relative expression [1]: 2.27
FoldChange, DAPK1 relative expression [1]: 0.82
FoldChange, DFFA relative expression [1]: 1.10
FoldChange, DIABLO relative expression [1]: 1.68
FoldChange, FADD relative expression [1]: 1.24
FoldChange, FAS relative expression [1]: 0.69
FoldChange, FASLG relative expression [1]: 1.37
FoldChange, GADD45A relative expression [1]: 3.98
FoldChange, GAPDH relative expression [1]: 0.86
FoldChange, HPRT1 relative expression [1]: 0.54
FoldChange, HRK relative expression [1]: 49.72
FoldChange, IGF1R relative expression [1]: 0.40
FoldChange, IL10 relative expression [1]: 1.11
FoldChange, LTA relative expression [1]: 0.71
FoldChange, LTBR relative expression [1]: 0.81
FoldChange, MCL1 relative expression [1]: 2.15
FoldChange, NAIP relative expression [1]: 0.95
FoldChange, NFKB1 relative expression [1]: 0.54
FoldChange, NOD1 relative expression [1]: 0.77
FoldChange, NOL3 relative expression [1]: 0.93
FoldChange, PYCARD relative expression [1]: 2.80
FoldChange, RIPK2 relative expression [1]: 1.45
FoldChange, RPLP0 relative expression [1]: 1.17
FoldChange, TNF relative expression [1]: 16.66
FoldChange, TNFRSF1A relative expression [1]: 0.94
FoldChange, TNFRSF1B relative expression [1]: 0.96
FoldChange, TNFRSF9 relative expression [1]: 110.29
FoldChange, TNFRSF10A relative expression [1]: 0.98
FoldChange, TNFRSF10B relative expression [1]: 1.11
FoldChange, TNFRSF11B relative expression [1]: 3.22
FoldChange, TNFRSF21 relative expression [1]: 3.02
FoldChange, TNFRSF25 relative expression [1]: 2.68
FoldChange, TNFSF8 relative expression [1]: 3.25
FoldChange, TNFSF10 relative expression [1]: 1.70
FoldChange, TP53BP2 relative expression [1]: 1.53
FoldChange, TP53 relative expression [1]: 0.95
FoldChange, TP73 relative expression [1]: 1.38
FoldChange, TRADD relative expression [1]: 1.11
FoldChange, TRAF2 relative expression [1]: 0.82
FoldChange, TRAF3 relative expression [1]: 1.01
FoldChange, XIAP relative expression [1]: 1.26
inhibitive ratio NCI-H460 (NCI-H460; 20 μmol/L): 54.93±0.86% and 54.93%
IC50 (NCI-H460; MTT, mean ± SD from five independent experiments): 12.9 ± 3.62 µM
